Reference: PMC3139667, “A Screen against Leishmania Intracellular Amastigotes: Comparison to a Promastigote Screen and Identification of a Host Cell-Specific Hit” (PLoS Neglected Tropical Diseases, 2011)
Where a name gives a salt, the structure may show the parent alone. Read-outs that look alike come from different tables or passages of the source.

Legend:
[1] = tested on: L. donovani axenic amastigotes; test: Dose response study against axenic amastigotes (CellTiter-Glo); format: cell-based, Leishmania donovani; conditions: 72 h at 37°C, CellTiter-Glo, read-out: GI50 Axenic amastigote
Experimental: L. donovani axenic amastigotes (5×10^5 cells/ml in axenic amastigote media) were dispensed in sterile 96-well flat white opaque assay plates (Greiner Bio-One) using a WellMate multichannel dispenser (Matrix). […] 1% DMSO and amphotericin B (2 µM, 1% DMSO final concentration) were added as negative and positive controls respectively. Axenic amastigotes were incubated with the compounds for 72 h at 37°C with 5% CO2. Parasite viability was then measured using CellTiter-Glo as described above.

THP-1 = test: Host cell toxicity: THP-1 host nuclei counts in the image-based assay; conditions: for GI50: read-out: GI50 THP-1; for Selectivity: ratio between parasite GI50 and THP-1 GI50
Experimental: (§1) Sterile, black, 96-well, clear bottom plates (Greiner Bio-One) were seeded with exponentially growing THP-1 (5×10^5cells/ml). THP-1 were treated with 0.1 µM phorbol myristate acetate (PMA, Sigma) at 37°C for 48 h to achieve differentiation into adherent, non-dividing macrophages. Maturation of THP-1 cells towards monocyte-macrophage like cells is essential to avoid parasitized cells being overgrown by replicating cells. After activation by PMA, cells were washed and incubated with complete RPMI medium containing stationary phase L. donovani promastigotes at a macrophage/promastigote ratio of 1/15. After 4 h incubation at 37°C, non-internalized promastigotes were removed by 2–3 successive washes with RPMI containing 5% FBS and 5% horse serum. Test compounds (10 µM), positive control (2 µM amphotericin B) or negative control (1% DMSO) were then added to the cultures using a Biomek FXp liquid handler (Beckman Coulter). Cultures were incubated at 37°C for 72 h. Cells were then washed with phosphate-buffered saline (PBS), fixed for 30 minutes with 4% formaldehyde, rinsed again with PBS, stained for 2 h with 4′,6′-diamidino-2-phenylindole (DAPI 300 nM) and finally washed with PBS. […] Images were acquired with an INCell Analyzer 1000 automated epi-fluorescent microscope (G.E. Healthcare). The excitation and emission filters used to detect DAPI were 350/50 nm and 460/40 nm respectively. Eight image fields were acquired per well with a 20X objective. The proprietary INCell Developer Toolbox 1.7 software was used for image analysis. Segmentation parameters were set to identify host nuclei with a minimum area of 250 µm^2 and parasite kinetoplast with an average area of 1 µm^2. The intensity of parasite nucleus was too low to be detected with a 20X objective. A border, representing the boundary of the cell, was drawn around the nucleus (total area between 700 and 2000 µm^2). Only parasites found within this area were included in the calculation to eliminate extracellular parasites. False positive parasite detection in the nucleus was also excluded from the calculation. Host cell nuclei and parasite kinetoplasts were counted and the ratio of parasites DNA to host nuclei was selected as the measurement output. Percentage inhibition of parasite growth was calculated as [1-(P/hcx-P/hc^+)/(P/hc^−-P/hc^+)]*100 where P/hcx, P/hc^+ and P/hc^− are parasite per host cell ratio for every well, positive control (amphotericin B) and negative control (DMSO) respectively. Calculation of Z' factor and GI50 curve fitting were carried out as described above.

[2] = tested on: L. donovani promastigotes; test: Promastigote high-throughput ATP-bioluminescence assay; format: cell-based, Leishmania donovani; conditions: 72 h at 27°C, CellTiter-Glo, read-out: GI50 Promastigote
Experimental: L. donovani promastigotes from an exponentially growing culture were diluted to 10^6/ml in RPMI containing 10% FBS and 10% BHT. The diluted culture (99 µl/well) was dispensed in sterile 96-well flat white opaque assay plates (Greiner Bio-One) using a WellMate multichannel dispenser (Matrix). 1 µl of 1 mM test compound dissolved in DMSO was added to the plates for a final concentration of 10 µM compound and 1% DMSO. Amphotericin B was added as a positive control (final concentration 2 µM, 1% DMSO) and as a negative control, 1 µl DMSO was added (1% final concentration). Compounds and controls were added to the assay plate with the robotic dispenser Biomek FXp liquid handler (Beckman Coulter). Promastigotes were incubated with the compounds for 72 h at 27°C. The parasites were then lysed by adding 50 µl of CellTiter-Glo (Promega) and placed on an orbital shaker for 5 min at room temperature. After lysis, the resulting ATP-bioluminescence was measured using the Analyst HT plate reader (Molecular Devices). Percentage inhibition of parasite growth was calculated for each well as [1-(RLUx-RLU^+)/(RLU^--RLU^+)]*100 where RLUx, RLU^+ and RLU^- are respectively the Relative Light Units for each well, positive (amphotericin B) and negative (DMSO) controls. A screening window coefficient, denoted Z' factor, was used to evaluate the performance of the assay. The Z' factor, calculated as 1-(3σc++3σc−)/(µc+−µc−) where σc+, σc−, µc+ and µc− are respectively the standard deviation and mean values of positive and negative controls, is reflective of the assay signal dynamic range and the data variation associated with signal measurement. […] GI50 curve fitting was carried out using GraphPad Prism 4 Software (GraphPad Software Inc., San Diego, CA).

[3] = tested on: L. donovani intracellular amastigotes; test: Intracellular amastigote high-throughput image-based assay in infected THP-1 macrophages; format: cell-based, Leishmania donovani; conditions: for GI50: L. donovani in THP-1, 72 h, parasites per host cell, read-out: GI50 Intracellular amastigote
Experimental: as §1

[4] = PMA-differentiated infected THP-1, 72 h, host nuclei count
[5] = ratio between promastigote GI50 and intracellular amastigote GI50, >2 more active against intracellular amastigote, <0.4 more active against promastigotes
[6] = Leishmania donovani, THP-1, 72 h

O=C(Nc1ccc(Cl)c(Cl)c1)c1cc(Cl)cc(Cl)c1O [3,3′,4′,5-tetrachlorosalicylanilide]
GI50 ([1]; Leishmania donovani): 1.38 µM | GI50 (THP-1; Homo sapiens, THP-1, 72 h): 0.32 µM | Selectivity (THP-1): 0.22 | GI50 ([2]; Leishmania donovani): 1.45 µM

CCC(c1ccc(OCCN(CC)CC)cc1)C(CC)c1ccc(OCCN(CC)CC)cc1 (stereo not shown) [4,4′-Diethylaminoethoxyhexestrol]
GI50 [1]: 10.9 µM | Selectivity (THP-1): 4.36 | GI50 (THP-1; [4]): 6.11 µM | GI50 [3]: 1.4 µM | Specificity [3, 5]: 3.57 | GI50 [2]: 5 µM

CC[C@@]1(O)C[C@H](O[C@H]2C[C@H](N(C)C)[C@H](O[C@H]3C[C@H](O)[C@H](O[C@H]4CCC(=O)[C@H](C)O4)[C@H](C)O3)[C@H](C)O2)c2c(cc3c(c2O)C(=O)c2c(O)cccc2C3=O)[C@H]1C(=O)OC [Aclacynomycine a1]
GI50 [1]: > 16.5 µM | Selectivity (THP-1): 5 | GI50 (THP-1; [4]): 29.1 µM | GI50 [3]: 5.81 µM | Specificity [3, 5]: 1.57 | GI50 [2]: 9.15 µM

Nc1c2ccccc2nc2ccccc12 [Aminacrine]
GI50 ([1]; Leishmania donovani): > 16.5 µM | GI50 (THP-1; Homo sapiens, THP-1, 72 h): 13 µM | Selectivity (THP-1): 6.82 | GI50 [3, 6]: 1.9 µM | Specificity [3, 5]: 4.71 | GI50 ([2]; Leishmania donovani): 8.96 µM

CCOC(=O)C1=C(COCCN)NC(C)=C(C(=O)OC)C1c1ccccc1Cl (stereo not shown) [Amlodipine]
GI50 ([1]; Leishmania donovani): 27 µM | GI50 (THP-1; Homo sapiens, THP-1, 72 h): > 16.5 µM | GI50 [3, 6]: 9.78 µM | Specificity [3, 5]: 0.31 | GI50 ([2]; Leishmania donovani): 3.11 µM

Cc1c(-c2ccc(O)cc2)n(Cc2ccc(OCCN3CCCCCC3)cc2)c2ccc(O)cc12 [Bazedoxifene]
GI50 ([1]; Leishmania donovani): > 16.5 µM | GI50 ([2]; Leishmania donovani): 6.52 µM

CC(C)(C)CC(C)(C)c1ccc(OCCOCC[N+](C)(C)Cc2ccccc2)cc1.[Cl-] [Benzetonium chloride]
GI50 [1]: 10.7 µM | GI50 [3]: 10 µM | Specificity [3, 5]: 1.13 | GI50 [2]: 11.3 µM

CCCCCCCCCCCCCCCC[n+]1ccccc1 [Cetylpyridinium chloride]
Specificity [3]: 8.05

C[C@@H]1CC[C@@]2(OC1)O[C@H]1[C@@H](O)[C@H]3[C@@H]4CC[C@H]5C[C@@H](O[C@@H]6O[C@H](CO)[C@H](O[C@@H]7O[C@H](CO)[C@@H](O)[C@H](O[C@@H]8OC[C@@H](O)[C@H](O)[C@H]8O)[C@H]7O[C@@H]7O[C@H](CO)[C@H](O)[C@H](O[C@@H]8O[C@H](CO)[C@@H](O)[C@H](O)[C@H]8O)[C@H]7O)[C@H](O)[C@H]6O)[C@H](O)C[C@]5(C)[C@H]4CC[C@]3(C)[C@H]1[C@@H]2C [Digitonin]
GI50 ([1]; Leishmania donovani): 13.8 µM | GI50 (THP-1; Homo sapiens, THP-1, 72 h): 13.5 µM | Selectivity (THP-1): 3.075 | GI50 ([2]; Leishmania donovani): 4.38 µM

CC(=O)[C@]1(O)Cc2c(O)c3c(c(O)c2[C@@H](O[C@H]2C[C@H](N)[C@H](O)[C@H](C)O2)C1)C(=O)c1ccccc1C3=O [Idarubicin]
GI50 ([1]; Leishmania donovani): 1.78 µM | GI50 (THP-1; Homo sapiens, THP-1, 72 h): 1.89 µM | Selectivity (THP-1): 0.40 | GI50 ([2]; Leishmania donovani): 4.65 µM

CN(C)C(=O)C(CCN1CCC(O)(c2ccc(Cl)cc2)CC1)(c1ccccc1)c1ccccc1 [Loperamide Hydrochloride]
GI50 ([1]; Leishmania donovani): > 50 µM | GI50 ([2]; Leishmania donovani): 17.3 µM

Clc1ccc(CO/N=C(\Cn2ccnc2)c2ccc(Cl)cc2Cl)c(Cl)c1 [Oxiconazole]
Specificity [3, 5]: 0.40

COc1c(Cl)cc2c(c1OC)N(C)[C@@H]1N3C(=O)[C@@]4(C)SS[C@@]3(C(=O)N4C)[C@H](O)[C@]21O [Sporidesmin A]
GI50 [1]: 1.66 µM | Selectivity (THP-1): 0.02 | GI50 (THP-1; [4]): 0.02 µM | GI50 [2]: 1.18 µM

CC(C)(C)c1ccc(C(O)CCCN2CCC(C(O)(c3ccccc3)c3ccccc3)CC2)cc1 (stereo not shown) [Terfenadine]
GI50 ([1]; Leishmania donovani): 0.61 µM | GI50 ([2]; Leishmania donovani): 11.9 µM

C[CH2][Hg][S]c1ccccc1C(=O)[O-].[Na+] [Thimerosal]
GI50 [1]: 1.5 µM | Selectivity (THP-1): 26.18 | GI50 (THP-1; [4]): 12.8 µM | GI50 [2]: 0.49 µM

CCCCN(CCCC)C(=S)[S-].CCCCN(CCCC)C(=S)[S-].[Zn+2] [Zinc Dibutyldithiocarbamate]
Selectivity (THP-1): 5.89 | Specificity [3]: 0.17

Gramicidin
GI50 [1]: 5.76 µM | Selectivity (THP-1): 12.19 | GI50 (THP-1; [4]): 8.38 µM | GI50 [2]: 0.68 µM
